Measurements from ChEMBL document CHEMBL4330075, “Discovery of Novel Quinoline-Chalcone Derivatives as Potent Antitumor Agents with Microtubule Polymerization Inhibitory Activity” (J Med Chem, 2019).

Columns and labels:
[1] = system: L02; assay: Cytotoxicity against human LO2 cells after 72 hrs by MTT assay; format: cell-based; settings: L02, 72 h
[2] = system: KB; assay: Antiproliferative activity against human KB cells after 72 hrs by MTT assay; format: functional, cell-based
[3] = system: K562; assay: Induction of apoptosis in human K562 assessed as early apoptotic cells at 20 nM after 48 hrs by Annexin V-APC/propidium iodide staining-based flow cytometric analysis (reference value: 4.44%); format: functional
[4] = system: K562; assay: Induction of apoptosis in human K562 assessed as late apoptotic cells at 20 nM after 48 hrs by Annexin V-APC/propidium iodide staining-based flow cytometric analysis (reference value: 1.30%); format: functional
[5] = system: K562; assay: Induction of apoptosis in human K562 assessed as early apoptotic cells at 5 nM after 48 hrs by Annexin V-APC/propidium iodide staining-based flow cytometric analysis (reference value: 4.44%); format: functional
[6] = system: K562; assay: Induction of apoptosis in human K562 assessed as viable cells at 5 nM after 48 hrs by Annexin V-APC/propidium iodide staining-based flow cytometric analysis (reference value: 92.34%); format: functional; settings: K562, 48 h, read-out: Activity
[7] = Toxicity in ICR mouse xenografted with […] cells assessed as effect on spleen at 10 to 20 mg/kg, iv qd for 21 consecutive days by H and E staining-based assay; format: organism-based; settings: in vivo
[8] = system: K562; assay: Induction of mitochondrial membrane potential disruption in human K562 cells assessed as collapsed mitochondrial membrane potential at 10 nM after 48 hrs by JC-1 staining-based flow cytometric analysis (reference value: 0.63%); format: functional
[9] = system: K562; assay: Cell cycle arrest in human K562 cells assessed as accumulation of cells at G1 phase at 20 nM after 48 hrs by propidium iodide staining-based flow cytometric analysis (reference value: 47.91%); format: functional
[10] = system: K562; assay: Induction of mitochondrial membrane potential disruption in human K562 cells assessed as intact mitochondrial membrane potential at 20 nM after 48 hrs by JC-1 staining-based flow cytometric analysis (reference value: 99.12%); format: functional
[11] = system: K562; assay: Induction of mitochondrial membrane potential disruption in human K562 cells assessed as intact mitochondrial membrane potential at 5 nM after 48 hrs by JC-1 staining-based flow cytometric analysis (reference value: 99.12%); format: functional
[12] = system: K562; assay: Cell cycle arrest in human K562 cells assessed as accumulation of cells at G2 phase at 5 nM after 48 hrs by propidium iodide staining-based flow cytometric analysis (reference value: 15.82%); format: functional
[13] = system: K562; assay: Induction of apoptosis in human K562 assessed as necrotic cells at 20 nM after 48 hrs by Annexin V-APC/propidium iodide staining-based flow cytometric analysis (reference value: 1.92%); format: functional
[14] = system: K562; assay: Cell cycle arrest in human K562 cells assessed as accumulation of cells at G2 phase at 10 nM after 48 hrs by propidium iodide staining-based flow cytometric analysis (reference value: 15.82%); format: functional
[15] = system: K562; assay: Induction of apoptosis in human K562 assessed as early apoptotic cells at 10 nM after 48 hrs by Annexin V-APC/propidium iodide staining-based flow cytometric analysis (reference value: 4.44%); format: functional
[16] = system: K562; assay: Cell cycle arrest in human K562 cells assessed as accumulation of cells at G1 phase at 5 nM after 48 hrs by propidium iodide staining-based flow cytometric analysis (reference value: 47.91%); format: functional
[17] = system: K562; assay: Cell cycle arrest in human K562 cells assessed as accumulation of cells at S phase at 20 nM after 48 hrs by propidium iodide staining-based flow cytometric analysis (reference value: 36.27%); format: functional
[18] = system: K562; assay: Induction of apoptosis in human K562 assessed as necrotic cells at 5 nM after 48 hrs by Annexin V-APC/propidium iodide staining-based flow cytometric analysis (reference value: 1.92%); format: functional
[19] = Toxicity in ICR mouse xenografted with […] cells assessed as decrease in body weight at 10 to 20 mg/kg, iv qd administered for 21 days and measured every 2 days; format: organism-based; settings: in vivo
[20] = system: K562; assay: Induction of apoptosis in human K562 assessed as viable cells at 20 nM after 48 hrs by Annexin V-APC/propidium iodide staining-based flow cytometric analysis (reference value: 92.34%); format: functional; settings: K562, 48 h, read-out: Activity
[21] = Antitumor activity against […] H22 cells xenografted in ICR mouse assessed as reduction in tumor weight at 20 mg/kg, iv qd for 21 consecutive days and measured every 2 days relative to control; format: functional; set-up: scale not given: the % may be the effect or the level left
[22] = system: HUVEC; assay: Antiproliferative activity against human HUVEC cells after 24 hrs by MTT assay; format: cell-based
[23] = system: MDA-MB-231; assay: Antiproliferative activity against human MDA-MB-231 cells after 72 hrs by MTT assay; format: functional, cell-based; settings: MDA-MB-231, 72 h
[24] = system: K562; assay: Induction of mitochondrial membrane potential disruption in human K562 cells assessed as collapsed mitochondrial membrane potential at 5 nM after 48 hrs by JC-1 staining-based flow cytometric analysis (reference value: 0.63%); format: functional
[25] = system: HCT-8; assay: Antiproliferative activity against human HCT8 cells after 72 hrs by MTT assay; format: functional, cell-based; settings: HCT-8, 72 h
[26] = system: K562; assay: Induction of mitochondrial membrane potential disruption in human K562 cells assessed as intact mitochondrial membrane potential at 10 nM after 48 hrs by JC-1 staining-based flow cytometric analysis (reference value: 99.12%); format: functional
[27] = system: K562; assay: Cell cycle arrest in human K562 cells assessed as accumulation of cells at G1 phase at 10 nM after 48 hrs by propidium iodide staining-based flow cytometric analysis (reference value: 47.91%); format: functional
[28] = system: K562; assay: Induction of apoptosis in human K562 assessed as viable cells at 10 nM after 48 hrs by Annexin V-APC/propidium iodide staining-based flow cytometric analysis (reference value: 92.34%); format: functional; settings: K562, 48 h, read-out: Activity
[29] = system: K562; assay: Induction of mitochondrial membrane potential disruption in human K562 cells assessed as collapsed mitochondrial membrane potential at 20 nM after 48 hrs by JC-1 staining-based flow cytometric analysis (reference value: 0.63%); format: functional
[30] = Toxicity in ICR mouse assessed as mouse survival at 640 mg/kg, iv for 14 days relative to control; format: organism-based; settings: in vivo
[31] = Toxicity in ICR mouse assessed as mouse survival at 409.6 mg/kg, iv for 14 days relative to control; format: organism-based; settings: in vivo
[32] = Cardiotoxicity in ICR mouse xenografted with […] cells at 10 to 20 mg/kg, iv qd for 21 consecutive days by H and E staining-based assay; format: toxicity, organism-based; settings: in vivo
[33] = system: K562; assay: Cell cycle arrest in human K562 cells assessed as accumulation of cells at G2 phase at 20 nM after 48 hrs by propidium iodide staining-based flow cytometric analysis (reference value: 15.82%); format: functional
[34] = Toxicity in ICR mouse assessed as mouse survival at 800 mg/kg, iv for 14 days relative to control; format: organism-based; settings: in vivo
[35] = Toxicity in ICR mouse xenografted with […] cells assessed as effect on lung at 10 to 20 mg/kg, iv qd for 21 consecutive days by H and E staining-based assay; format: organism-based; settings: in vivo
[36] = system: K562; assay: Antiproliferative activity against human K562 cells after 72 hrs by MTT assay; format: functional, cell-based; settings: K562, 72 h
[37] = system: K562; assay: Cell cycle arrest in human K562 cells assessed as accumulation of cells at S phase at 10 nM after 48 hrs by propidium iodide staining-based flow cytometric analysis (reference value: 36.27%); format: functional

## COc1ccc(/C=C(\C)C(=O)c2cc(C)nc3ccccc23)cc1O
[1]
  IC50: 987 nM
[2]
  IC50: 16 nM
[3]
  Activity: 36.86%
[4]
  Activity: 23.28%
[5]
  Activity: 12.87%
[6]
  viability at 0.005 µM: 80.2%
[7]
  Activity: Non-Toxic
[8]
  Activity: 26.2%
[9]
  Activity: 42.68%
[10]
  Activity: 46.39%
[11]
  Activity: 84.97%
[12]
  Activity: 18.04%
[13]
  Activity: 4.86%
[14]
  Activity: 22.85%
[15]
  Activity: 23.15%
[16]
  Activity: 50.41%
[17]
  Activity: 30.35%
[18]
  Activity: 2.63%
[19]
  Activity: Non-Toxic
[20]
  viability at 0.02 µM: 35%
[21]
  Activity: 65.3%
[22]
  IC50: 250 nM
[23]
  IC50: 15 nM
[24]
  Activity: 15.02%
[25]
  IC50: 15 nM
[26]
  Activity: 73.8%
[27]
  Activity: 52.22%
[28]
  viability at 0.01 µM: 62.7%
[29]
  Activity: 53.39%
[30]
  survival at 336 h: 60%
[31]
  survival at 336 h: 90%
[32]
  Activity: Non-Toxic
[33]
  Activity: 26.98%
[34]
  survival at 336 h: 30%
[35]
  Activity: Non-Toxic
[36]
  IC50: 9 nM
[37]
  Activity: 24.94%
